Source: patent US20210137890A1, “DEUTERATED IMIDAZOLIDINEDIONE COMPOUNDS AND THEIR USES” (priority 2018, published 2021)
“Also recorded” adds a separate entry of the source. Like-named read-outs stand apart in the source and are kept apart here.

Experiments:
[1] = test system: serum PSA; details: mCRPC patients
Procedure: There were two (2) stages or arms to the study, Stage A and Stage B.
During Stage A, the dose escalation tolerance (or tolerability) study was conducted using the traditional rule-based 3+3 design. All subjects in Stage A were involved in pharmacokinetic studies. […]
Stage A: PSA was dynamically observed to assess the initial dose-effectiveness based on data from subjects in each dose group until the end of the 12-week trial period. Serum PSA test, safety evaluation (including blood, liver and kidney function, electrocardiogram, etc.) were performed at the 6th, 8th, 10th and 12th weeks of visit, and the trial ended at the 12th week of visit.
They show the percentage change in PSA levels for subjects in the study. In both figures, the vertical axis represents the percent change in PSA levels from the baseline and the horizontal axis (numbers that are in line with the “0%”) identifies individual patient or subject numbers.

[2] = mouse, in vivo
[3] = Clinical pharmacokinetic study of HC-1119 (Stage A, plasma M0, M1, M2); details: steady state, 80 mg HC-1119
Procedure: Single dose biological sample collection: Subjects were given a single fasting dose on the first day of the study. Blood samples were collected before (−0.5˜0 h) and after administration 0.5, 0.75, 1, 2 h (±5 min), 4, 8, 12 h (±15 min), 24 h (±30 min, Day 2 before administration). Venous blood (3 mL) was collected, set in an anticoagulant tube (type of anticoagulant was based on established analytical test methods).
Continuous administration of biological samples collected: Blood sample collected on continuous administration Day 7, 21, 35, 42, 56, 70, 84 before administration, on Day 84 after administration 0.5, 0.75, 1, 2 h (±5 min), 4, 8, 12 h (±15 min), 24 h (±30 min, Day 85 before administration). Venous blood (3 mL) was collected, set in an anticoagulant tube (type of anticoagulant was based on established analytical test methods).
Sample Handling: Samples were centrifuged (about 3000 rpm for 10 minutes) to separate the plasma as soon as possible. Isolated plasma samples were stored in duplicate in plasma cryostat, with the tagged population's enrollment number, subject's initials, date and time of collection. Plasma samples were stored in −60° C.˜−80° C. freezer as soon as possible. One blood sample was retained at the research center and one blood sample was shipped to a specialist testing company for plasma drug concentration determination.

[4] = dog, in vivo, 90 mg/kg
[5] = In vitro activity of metabolites M1 and M2; details: in vitro experiments
[6] = molecular target: T1, AR (Homo sapiens, UniProt P10275); details: read-out: Ki for AR binding
T1 sequence (P10275 1-920): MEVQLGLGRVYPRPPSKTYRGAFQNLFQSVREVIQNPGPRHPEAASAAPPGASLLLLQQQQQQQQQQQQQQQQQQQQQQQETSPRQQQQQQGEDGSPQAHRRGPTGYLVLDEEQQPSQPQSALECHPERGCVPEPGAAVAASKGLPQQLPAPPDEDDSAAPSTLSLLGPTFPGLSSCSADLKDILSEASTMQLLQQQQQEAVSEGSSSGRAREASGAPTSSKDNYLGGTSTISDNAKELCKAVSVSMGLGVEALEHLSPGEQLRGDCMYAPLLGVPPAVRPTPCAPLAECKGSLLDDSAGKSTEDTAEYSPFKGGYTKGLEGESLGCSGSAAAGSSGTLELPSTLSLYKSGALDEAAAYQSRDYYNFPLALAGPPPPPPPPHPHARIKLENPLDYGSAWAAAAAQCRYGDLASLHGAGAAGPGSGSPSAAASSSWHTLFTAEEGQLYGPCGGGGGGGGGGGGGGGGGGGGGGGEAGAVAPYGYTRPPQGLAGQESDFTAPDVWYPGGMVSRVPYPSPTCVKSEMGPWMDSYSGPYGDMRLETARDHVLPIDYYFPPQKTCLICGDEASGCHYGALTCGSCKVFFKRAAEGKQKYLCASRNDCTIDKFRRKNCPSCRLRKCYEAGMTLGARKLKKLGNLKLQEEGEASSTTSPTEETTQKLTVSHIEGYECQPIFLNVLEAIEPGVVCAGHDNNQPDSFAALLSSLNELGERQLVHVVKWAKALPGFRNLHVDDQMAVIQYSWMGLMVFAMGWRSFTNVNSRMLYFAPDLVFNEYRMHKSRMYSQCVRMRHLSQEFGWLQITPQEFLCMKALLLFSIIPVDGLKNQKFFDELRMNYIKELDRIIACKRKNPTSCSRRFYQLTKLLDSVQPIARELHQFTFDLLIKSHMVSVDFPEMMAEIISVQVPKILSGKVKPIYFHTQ

[7] = test system: LNCaP; experiment: LNCaP growth inhibition; assay type: cell-based
[8] = Brain penetration of parental drug and metabolites in mice (PD study); details: mouse, po, 10 mg/kg
[9] = Phase I dose escalation study, human; cited from earlier work

Structure (SMILES): [2H]C([2H])([2H])NC(=O)c1ccc(N2C(=S)N(c3ccc(C#N)c(C(F)(F)F)c3)C(=O)C2(C)C)cc1F [HC-1119, 4-{3-[4-cyano-3-(trifluoromethyl)phenyl]-5,5-dimethyl-4-oxo-2-thio-1-imidazolidinyl}-2-fluoro-N-trideuteromethylbenzamide]
- maximum decrease in PSA levels by more than 50% from the baseline (maximum response rate) ([1]; 40 mg dose group): 66.7%
- rate of decrease in PSA levels by more than 50% from the baseline (response rate at week 12) ([1]; 40 mg dose group): 66.7%
- maximum decrease in PSA levels by more than 50% from the baseline (maximum response rate) ([1]; 80 mg dose group): 88.8%
- rate of decrease in PSA levels by more than 50% from the baseline (response rate at week 12) ([1]; 80 mg dose group): 75%
- maximum decrease in PSA levels by more than 50% from the baseline (maximum response rate) ([1]; 160 mg dose group): 50%
- rate of decrease in PSA levels by more than 50% from the baseline (response rate at week 12) ([1]; 160 mg dose group): 57.1%
- maximum decrease in PSA levels by more than 50% from the baseline (maximum response rate) ([1]; 200 mg dose group): 100%
- rate of decrease in PSA levels by more than 50% from the baseline (response rate at week 12) ([1]; 200 mg dose group): 33.3%
- Brain ([2]; po, 10 mg/kg): 1393 ng/g
- Plasma ([2]; po, 10 mg/kg): 4686 ng/mL
- C24 h for the combination of the active drugs (M0+M2) [3]: close to that of 160 mg enzalutamide
- adult equivalent dose (HED) calculated from HNSTD [4]: 2916 mg/day

Structure (SMILES): CC1(C)C(=O)N(c2ccc(C#N)c(C(F)(F)F)c2)C(=S)N1c1ccc(C(=O)O)c(F)c1 [M1]
- in vitro activity [5]: inactive; also recorded: not active

Structure (SMILES): CC1(C)C(=O)N(c2ccc(C#N)c(C(F)(F)F)c2)C(=S)N1c1ccc(C(N)=O)c(F)c1 [M2]
- crossing of the blood-brain barrier (BBB) [2]: more readily cross the blood-brain barrier
- Ki [6]: 0.057 µM
- IC50 [7]: 0.00013 µM

Structure (SMILES): CNC(=O)c1ccc(N2C(=S)N(c3ccc(C#N)c(C(F)(F)F)c3)C(=O)C2(C)C)cc1F [enzalutamide]
- concentration at 24 h ([8]; brain): 647 ng/g
- Kp at 24 h ([8]; brain/plasma): 0.31
- concentration at 24 h ([8]; plasma): 2100 ng/mL
- maximum tolerable dosage (MTD) [9]: 240 mg/day
